Source: patent publication US20080306038A1, “Compositions and Methods for Modulating Inflammation Using Fluoroquinolones” (priority 2007, published 2008)

Assays:
Type in all cases: cell-based, human
[1] = tested on: MIP-1α; test: LPS-stimulated MIP-1α production in THP-1 monocytes (multiplex Luminex); design: key to Inhibition of LPS-stimulated MIP-1α production: “X” signifies significant inhibition at a particular concentration; settings: 18 hours, THP-1 monocytes
Procedure: (§1) Human THP-1 monocytes (ATCC TIB 202) were purchased from American Type Culture Collection (Manassas, Va.) and maintained in RPMI 1640 medium (Invitrogen, Carlsbad, Calif.) supplemented with 10% fetal bovine serum (“FBS”, Invitrogen, Carlsbad, Calif.), 100 U/mL of penicillin (Invitrogen, Carlsbad, Calif.), and 100 μg/mL of streptomycin (Invitrogen, Carlsbad, Calif.) at 37° C. in a humidified incubator with 5% CO2. THP-1 cells were pre-cultured in RPMI 1640 medium containing 10% dialyzed serum for 24 h. […] Each treatment was performed in triplicate.
(§2) Samples were analyzed using multiplex bead technology, which utilizes microspheres as the solid support for immunoassays and allows the analysis of all cytokines from each sample (D. A. Vignali, J. Immunol. Methods, Vol. 243, 243-255 (2000)). Sixteen cytokines were measured according to the manufacturer's instructions. Briefly, 50 μL of medium samples were incubated with antibody-coated capture beads overnight at 4° C. Washed beads were further incubated with biotin-labelled anti-human cytokine antibodies for 2 h at room temperature followed by incubation with streptavidin-phycoerythrin for 30 min. Samples were analyzed using Luminex 200™ (Luminex, Austin, Tex.) and Beadview software v1.0 (Upstate Cell Signaling Solutions, Temecula, Calif.). Standard curves of known concentrations of recombinant human cytokines were used to convert fluorescence units (median fluorescence intensity) to cytokine concentration in pg/mL. Only the linear portions of the standard curves were used to quantify cytokine concentrations, and in instances where the fluorescence reading exceeded the linear range of the standard curve, an appropriate dilution was performed to ensure that the concentration was in the linear portion of the curve.
(§3) All cytokine concentrations (pg/mL) were expressed as mean ±standard deviation. Statistical analysis comparing effects of treatment across groups was performed using a one-way ANOVA with a Dunnett's post-hoc comparison test using either vehicle control or LPS treatment as references. For all assays, p≦0.05 was predetermined as the criterion of statistical significance.

[2] = tested on: IL-1α; test: LPS-stimulated IL-1α production in THP-1 monocytes (multiplex Luminex); design: key to Inhibition of LPS-stimulated IL-1α production: “X” signifies significant inhibition at a particular concentration; settings: 18 hours, THP-1 monocytes
Procedure: as §1, §2, §3

[3] = tested on: IL-8; test: LPS-stimulated IL-8 production in THP-1 monocytes (multiplex Luminex); design: key to Inhibition of LPS-stimulated IL-8 production: “X” signifies significant inhibition at a particular concentration; settings: 18 hours, THP-1 monocytes
Procedure: as §1, §2, §3

[4] = tested on: IL-1ra; test: LPS-stimulated IL-1ra production in THP-1 monocytes (multiplex Luminex); design: key to Inhibition of LPS-stimulated IL-1ra production: “X” signifies significant inhibition at a particular concentration; settings: 18 hours, THP-1 monocytes
Procedure: as §1, §2, §3

[5] = tested on: VEGF; test: LPS-stimulated VEGF production in THP-1 monocytes (multiplex Luminex); design: key to Inhibition of LPS-stimulated VEGF production: “X” signifies significant inhibition at a particular concentration; settings: 30 μg/mL compound + 10 μg/mL LPS, 18 hours, THP-1 monocytes
Procedure: as §1, §2, §3

[6] = tested on: IP-10; test: LPS-stimulated IP-10 production in THP-1 monocytes (multiplex Luminex); design: key to Inhibition of LPS-stimulated IP-10 production: “X” signifies significant inhibition at a particular concentration; settings: 18 hours, THP-1 monocytes
Procedure: as §1, §2, §3

[7] = tested on: IL-12p40; test: LPS-stimulated IL-12p40 production in THP-1 monocytes (multiplex Luminex); design: key to Inhibition of LPS-stimulated IL-12p40 production: “X” signifies significant inhibition at a particular concentration; settings: 18 hours
Procedure: as §1, §2, §3

[8] = tested on: IL-6; test: LPS-stimulated IL-6 production in THP-1 monocytes (multiplex Luminex); design: key to Inhibition of LPS-stimulated IL-6 production: “X” signifies significant inhibition at a particular concentration; settings: 18 hours, THP-1 monocytes
Procedure: as §1, §2, §3

[9] = tested on: IL-1β; test: LPS-stimulated IL-1β production in THP-1 monocytes (multiplex Luminex); design: key to Inhibition of LPS-stimulated IL-1β production: “X” signifies significant inhibition at a particular concentration; settings: 18 hours, THP-1 monocytes
Procedure: as §1, §2, §3

[10] = 30 μg/mL compound + 10 μg/mL LPS
[11] = 10 μg/mL compound + 10 μg/mL LPS

COc1c(N2C[C@@H]3CCCN[C@@H]3C2)c(F)cc2c(=O)c(C(=O)O)cn(C3CC3)c12 [Moxifloxacin, moxifloxacin, reference compound]
Inhibition of LPS-stimulated MIP-1α production [1, 10]: X | Concentration at which a significant inhibitory effect was observed for MIP-1α ([1]; LPS-induced): 30 µg/mL | Inhibition of LPS-stimulated IL-1α production [2, 10]: X | Concentration at which a significant inhibitory effect was observed for IL-1α ([2]; LPS-induced): 30 µg/mL | Inhibition of LPS-stimulated IL-8 production [3, 10]: X | Concentration at which a significant inhibitory effect was observed for IL-8 ([3]; LPS-induced): 30 µg/mL | Inhibition of LPS-stimulated IL-1ra production [4, 11]: X | Inhibition of LPS-stimulated IL-1ra production [4, 10]: X | Concentration at which a significant inhibitory effect was observed for IL-1ra ([4]; LPS-induced): 10 µg/mL | Inhibition of LPS-stimulated VEGF production [5]: X | Inhibition of LPS-stimulated IP-10 production [6, 10]: X | Concentration at which a significant inhibitory effect was observed for IP-10 ([6]; LPS-induced): 30 µg/mL | Inhibition of LPS-stimulated IL-12p40 production ([7]; 1 μg/mL compound + 10 μg/mL LPS): X | Inhibition of LPS-stimulated IL-12p40 production [7, 11]: X | Inhibition of LPS-stimulated IL-12p40 production [7, 10]: X | Concentration at which a significant inhibitory effect was observed for IL-12p40 ([7]; LPS-induced): 1 µg/mL | Inhibition of LPS-stimulated IL-6 production [8, 11]: X | Concentration at which a significant inhibitory effect was observed for IL-6 ([8]; LPS-induced): 10 µg/mL | Inhibition of LPS-stimulated IL-1β production [9, 10]: X | Concentration at which a significant inhibitory effect was observed for IL-1β ([9]; LPS-induced): 30 µg/mL
